From patent US11072635B2, “Macrocyclic broad spectrum antibiotics” (priority 2015, dated 2021)
In brackets after ≈: the same amount, converted by molar mass. Read-outs that look alike come from different tables or passages of the source.

Columns and labels:
[1] = system: Methicillin Resistant Staphylococcus aureus strain USA 300, NRS384 (S. aureus); assay: Minimum inhibitory concentration, broth micro-dilution (CLSI); type: cell-based
Procedure: (§1) In vitro antimicrobial activity of each compound was determined by measuring minimal inhibitor concentrations (MICs) using the broth micro-dilution technique as approved by the Clinical and Laboratory Standards Institute (CLSI) (Methods for Dilution Antimicrobial Susceptibility Tests for Bacteria that Grow Aerobically; Approved Standard—Eighth Edition. CLSI document M07-A8. Wayne, Pa.: Clinical and Laboratory Standards; 2009). Antibacterial activity was measure against three strains of bacteria: a Methicillin Resistant Staphylococcus aureus strain USA 300, NRS384 (S. aureus); a strain of Escherichia coli MC4100 harboring the IMP4213 (E. coli IMP), which results in increased outer-membrane permeability (B Martin and Silhavy T. Imp/OstA is required for cell envelope biogenesis in Escherichia coli. (2002) Molecular Microbiology, 45(5), 1289-1302), and Escherichia coli ATCC 25922 (E. coli), a clinically relevant Gram-negative strain. Cells were inoculated onto plates of Trypyticase Soy Agar or Luria Agar respectively and grown at 35° C. for 20 hours. Inocula suspensions were prepared by scraping cells into 1 mL of testing media (cation adjusted Mueller Hinton Broth supplemented with 0.002% v/v Tween-80) and diluting to a final OD600 nm of 0.01.
(§2) Test compounds were prepared in DMSO at a concentration of 10 mg/mL. […] In protocol 2, the compound stocks were diluted into testing media at a concentration of 4 μg/mL and serial 2-fold dilutions were made in the same media, in 96-well U bottom microtiter dishes, for a total of 10 compound concentrations. In protocol 3, compound stocks were diluted into testing media at a concentration of 0.5 μg/mL, with serial 2-fold dilutions conducted as described above. […] Inocula suspensions were added to the 2-fold serial dilutions of test compounds to a final density of OD OD600 nm of 0.0005 and incubated at 35° C. for 22 hours.

[2] = system: Escherichia coli MC4100 harboring the IMP4213 (E. coli IMP); assay: microbe, parasite or virus in culture; type: cell-based; conditions: 22 h, read-out: MIC (μg/mL) E. coli IMP
Procedure: as §1, §2

[3] = system: Escherichia coli ATCC 25922 (E. coli); assay: Minimum inhibitory concentration, broth micro-dilution (CLSI); type: cell-based; conditions: read-out: MIC (μg/mL) E. coli
Procedure: Cells were inoculated onto plates of Trypyticase Soy Agar or Luria Agar respectively and grown at 35° C. for 20 hours. Inocula suspensions were prepared by scraping cells into 1 mL of testing media (cation adjusted Mueller Hinton Broth supplemented with 0.002% v/v Tween-80) and diluting to a final OD600 nm of 0.01.
as §2

[4] = target: T1, SpsB (Staphylococcus aureus signal peptidase) (Staphylococcus aureus, UniProt P0A070); assay: Whole-cell SpsB biochemical screening assay (kinetic fluorogenic enzyme activity)
T1 construct: a suspension of Staphylococcus aureus cells as a source of SpsB instead of recombinant SpsB protein; endogenous in cells; host or cells: S. aureus, USA300 background, overexpressing SpsB (whole-cell suspension)
T1 sequence (P0A070 whole entry): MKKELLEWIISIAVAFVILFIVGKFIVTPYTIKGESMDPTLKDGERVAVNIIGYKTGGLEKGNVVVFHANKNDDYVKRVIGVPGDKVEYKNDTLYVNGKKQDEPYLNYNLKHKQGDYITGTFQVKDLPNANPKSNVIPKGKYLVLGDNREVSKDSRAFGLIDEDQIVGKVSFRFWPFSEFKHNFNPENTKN
Procedure: A kinetic fluorogenic enzyme activity assay was used to assess inhibition of SpsB (Staphylococcus aureus signal peptidase) activity and IC50s were determined. This assay uses a suspension of Staphylococcus aureus cells as a source of SpsB instead of recombinant SpsB protein.
Cell preparation: Luria broth (LB) was inoculated with S. aureus (USA300 background, overexpressing SpsB) and shaken at 37° C. until an OD600 nm of 1.5-2.0 was reached (˜4 hr). The culture was then diluted to an OD600 nm of 1.0 with LB, aliquoted and centrifuged at 10,000×g for 2 mins. The supernatant was removed and the pellet was resuspended in phosphate buffer (1×PBS, 12.5 mg/L MgCl2, 25 mg/L CaCl2, 0.1% Tween-80) to an OD600 nm of 0.5, then centrifuged again at 10,000×g for 2 mins. The supernatant was removed and the pellets were frozen at −20° C.
Test compounds were prepared in DMSO at a concentration of 10 mg/mL. These compound stocks were diluted into DMSO to a concentration of 25 μg/mL and serial 3-fold dilutions were made in DMSO, for a total of 11 compound concentrations. 20 nL of each compound solution was pre-spotted into a white 384-well plate (50 μL/well polypropylene, Nunc) using acoustic fluid transfer (Echo).
Frozen S. aureus pellets were resuspended in assay buffer (1×PBS, 12.5 mg/L MgCl2, 25 mg/L CaCl2, 0.1% Tween-80) to an OD600 nm of 0.05, then mixed 1:1 (v/v) with 20 μM substrate ((Dabcyl)βAla-KPAKAAE(Edans)) in assay buffer, and this solution was added (20 μL/well) to the 384-well plate that had been pre-spotted with compound. Fluorescence intensity was then immediately read kinetically for 30 minutes with 2 minute read intervals to monitor cleavage of the internally quenched peptide substrate (excitation wavelength=340 nm, emission wavelength=490 nm, Molecular Devices Spectramax M5). Reaction rate (slope) was plotted against inhibitor concentration to derive the IC50.

[5] = MRSA / NRS 384 / USA300, MRSA USA 300, NRS384, 35° C., 22 hours, cation adjusted Mueller Hinton Broth with 0.002% Tween-80, read-out: MIC (μg/mL) S. aureus
[6] = ATCC25922, E. coli ATCC 25922, 35° C., 22 hours
[7] = MRSA / NRS 384 / USA300, 22 h, read-out: MIC (μg/mL) S. aureus

| SMILES | MIC [1, 5] | MIC [2] | MIC [3, 6] | MIC [1, 7] | MIC ([3]; ATCC25922, 22 h) | IC50 [4] |
| --- | --- | --- | --- | --- | --- | --- |
| CCCCCCCc1ccc(C(=O)N[C@@H](CCN)C(=O)N(C)[C@@H]2C(=O)N[C@@H](C)C(=O)N[C@H](C(=O)NC/C=N/N3CC(=O)NC3=O)Cc3ccc(OCCN)c(c3)-c3cc2ccc3OCCN)c(C)c1 [Compound 101] | 0.094 µg/mL (≈ 0.0985 µM) | 0.031 µg/mL (≈ 0.0325 µM) | 4 µg/mL (≈ 4.19 µM) |  |  |  |
| CCCCCCCc1ccc(C(=O)N[C@@H](CCN)C(=O)N(C)[C@@H]2C(=O)N[C@@H](C)C(=O)N[C@H](C(=O)N[C@@H](C)/C=N/N3CC(=O)NC3=O)Cc3ccc(OCCN)c(c3)-c3cc2ccc3OCCN)c(C)c1 [Compound 102] | 0.13 µg/mL (≈ 0.134 µM) | 0.094 µg/mL (≈ 0.0971 µM) | 8 µg/mL (≈ 8.26 µM) |  |  |  |
| CCCCCCCc1ccc(C(=O)N[C@@H](CCN)C(=O)N(C)[C@@H]2C(=O)N[C@@H](C)C(=O)N[C@H](C(=O)O)Cc3ccc(OCCN)c(c3)-c3cc2ccc3OCCN)c(C)c1 [Compound 103] |  | 0.0078 µg/mL (≈ 0.00956 µM) |  | 0.17 µg/mL (≈ 0.208 µM) | 0.75 µg/mL (≈ 0.919 µM) |  |
| CCCCCCCc1ccc(C(=O)N[C@@H](CCN)C(=O)N(C)[C@@H]2C(=O)N[C@@H](C)C(=O)N[C@H](C(=O)NS(=O)(=O)CCl)Cc3ccc(OCCN)c(c3)-c3cc2ccc3OCCN)c(C)c1 [Compound 104] | 0.75 µg/mL (≈ 0.809 µM) | 0.023 µg/mL (≈ 0.0248 µM) | 4 µg/mL (≈ 4.31 µM) |  |  |  |
| CCCCCCCc1ccc(C(=O)N[C@@H](CCN)C(=O)N(C)[C@@H]2C(=O)N[C@@H](C)C(=O)N[C@H](C(=O)N[C@@H](C)C(=O)NOC(C)=O)Cc3ccc(OCCN)c(c3)-c3cc2ccc3OCCN)c(C)c1 [Compound 108] |  | 0.5 µg/mL (≈ 0.53 µM) |  | 0.75 µg/mL (≈ 0.794 µM) | 32 µg/mL (≈ 33.9 µM) |  |
| CCCCCCCc1ccc(C(=O)N[C@@H](CCN)C(=O)N(C)[C@@H]2C(=O)N[C@@H](C)C(=O)N[C@H](C(=O)NS(=O)(=O)O)Cc3ccc(OCCN)c(c3)-c3cc2ccc3OCCN)c(C)c1 [Compound 111] |  | 0.063 µg/mL (≈ 0.0704 µM) |  | 0.25 µg/mL (≈ 0.279 µM) | 8 µg/mL (≈ 8.94 µM) |  |
| CCCCCCCCc1ccc(C(=O)N[C@@H](CCN)C(=O)N(C)[C@@H]2C(=O)N[C@@H](C)C(=O)N[C@H](C(=O)NCC(=O)NCC#N)Cc3ccc(OCCN)c(c3)-c3cc2ccc3OCCN)c(C)c1 [Compound 114] |  | 0.13 µg/mL (≈ 0.141 µM) |  | 0.5 µg/mL (≈ 0.54 µM) | 8 µg/mL (≈ 8.65 µM) |  |
| CCCCCCOc1ccc(C(=O)N[C@@H](CCN)C(=O)N(C)[C@@H]2C(=O)N[C@@H](C)C(=O)N[C@H](C(=O)N[C@@H](C)C(=O)c3nnn[nH]3)Cc3ccc(OCCN)c(c3)-c3cc2ccc3OCCN)c(Cl)c1 [Compound 116] |  | 0.063 µg/mL (≈ 0.0655 µM) |  | 0.063 µg/mL (≈ 0.0655 µM) | 4 µg/mL (≈ 4.16 µM) |  |
| CCCCc1ccc(-c2ccc(C(=O)N[C@@H](CCCCN)C(=O)N(C)[C@@H]3C(=O)N[C@@H](C)C(=O)N[C@H](C(=O)NCCC#N)Cc4ccc(OCCN)c(c4)-c4cc3ccc4OCCN)cc2)cc1 [Compound 119] |  | 1 µg/mL (≈ 1.09 µM) | 24 µg/mL (≈ 26.2 µM) |  |  | 0.071 µM |
| CCCCc1ccc(-c2ccc(C(=O)N[C@@H](CN)C(=O)N(C)[C@@H]3C(=O)N[C@@H](C)C(=O)N[C@H](C(=O)NC(C)=O)Cc4ccc(OCCN)c(c4)-c4cc3ccc4OCCN)cc2)cc1 [Compound 122] |  | 0.094 µg/mL (≈ 0.109 µM) |  | 1.5 µg/mL (≈ 1.74 µM) | 3 µg/mL (≈ 3.48 µM) |  |
| C=C(C#N)NC(=O)[C@@H]1Cc2ccc(OCCN)c(c2)-c2cc(ccc2OCCN)[C@H](N(C)C(=O)[C@H](CCCN)NC(=O)c2ccc(-c3ccc(CCCC)cc3)cc2)C(=O)N[C@@H](C)C(=O)N1 [Compound 130] |  | 0.13 µg/mL (≈ 0.144 µM) |  | 0.38 µg/mL (≈ 0.422 µM) | 6 µg/mL (≈ 6.67 µM) |  |
| CCCCc1ccc(-c2ccc(C(=O)N[C@@H](CN)C(=O)N(C)[C@@H]3C(=O)N[C@@H](C)C(=O)N[C@H](c4nsc(=O)[nH]4)Cc4ccc(OCCN)c(c4)-c4cc3ccc4OCCN)cc2)cc1 [Compound 132] |  | 0.25 µg/mL (≈ 0.285 µM) |  | 4 µg/mL (≈ 4.56 µM) | 8 µg/mL (≈ 9.11 µM) |  |
| CCCCc1ccc(-c2ccc(C(=O)N[C@@H](CCCN)C(=O)N(C)[C@@H]3C(=O)N[C@@H](C)C(=O)N[C@H](c4nccc(=O)[nH]4)Cc4ccc(OCCN)c(c4)-c4cc3ccc4OCCN)cc2)cc1 [Compound 135] |  | 1.5 µg/mL (≈ 1.67 µM) |  | > 4 µg/mL | 32 µg/mL (≈ 35.6 µM) |  |
| CCCCc1ccc(-c2ccc(C(=O)N[C@@H](CCCN)C(=O)N(C)[C@@H]3C(=O)N[C@@H](C)C(=O)N[C@H](/C=C/C#N)Cc4ccc(OCCN)c(c4)-c4cc3ccc4OCCN)cc2)cc1 [Compound 138] |  | 0.5 µg/mL (≈ 0.583 µM) |  | 4 µg/mL (≈ 4.67 µM) | 16 µg/mL (≈ 18.7 µM) |  |
| C=CC(=O)N(C)NC(=O)[C@@H]1Cc2ccc(OCCN)c(c2)-c2cc(ccc2OCCN)[C@H](N(C)C(=O)[C@H](CCN)NC(=O)c2ccc(CCCC)cc2C)C(=O)N[C@@H](C)C(=O)N1 [Compound 144] | > 4 µg/mL | 2 µg/mL (≈ 2.34 µM) | 64 µg/mL (≈ 74.8 µM) |  |  |  |
| C[C@@H]1NC(=O)[C@@H](N(C)C(=O)[C@H](CCCCN)NC(=O)c2ccc(-c3ccc(Cl)cc3)cc2)c2ccc(O)c(c2)-c2cc(ccc2O)C[C@@H](C(=O)NN(C)C(=O)CCl)NC1=O [Compound 145] |  | 4 µg/mL (≈ 4.65 µM) |  | 2 µg/mL (≈ 2.32 µM) | > 64 µg/mL |  |
| CCCCCCc1ccc(C(=O)N[C@@H](CCN)C(=O)N(C)[C@@H]2C(=O)N[C@@H](C)C(=O)N[C@H](C(=O)O)Cc3ccc(O)c(c3)-c3cc2ccc3O)c(C)c1 [Compound 146] |  | 0.75 µg/mL (≈ 1.05 µM) |  | > 4 µg/mL | > 64 µg/mL |  |
| CCCCCCCc1ccc(C(=O)N[C@@H](CCN)C(=O)N(C)[C@@H]2C(=O)N[C@@H](C)C(=O)N[C@H](C(=O)N[C@@H](C)C(=O)Oc3ccccc3)Cc3ccc(OCCN)c(c3)-c3cc2ccc3OCCN)c(C)c1 [Compound 148] | 0.5 µg/mL (≈ 0.519 µM) |  | 15.8 µg/mL (≈ 16.5 µM) |  |  |  |
| CCCCCCCc1ccc(C(=O)N[C@@H](CCN)C(=O)N(C)[C@@H]2C(=O)N[C@@H](C)C(=O)N[C@H](C(=O)N[C@@H](C)C(=O)NOC(N)=O)Cc3ccc(OCCN)c(c3)-c3cc2ccc3OCCN)c(C)c1 [Compound 149] | 0.25 µg/mL (≈ 0.265 µM) |  | 16.1 µg/mL (≈ 17.1 µM) |  |  |  |
| CCCCCCCc1ccc(C(=O)N[C@@H](CCN)C(=O)N(C)[C@@H]2C(=O)N[C@@H](C3CC3)C(=O)N[C@H](C(=O)N[C@@H](C)C(C)=O)Cc3ccc(OCCN)c(c3)-c3cc2ccc3OCCN)c(C)c1 [Compound 150] | 0.068 µg/mL (≈ 0.0746 µM) |  | 4.39 µg/mL (≈ 4.82 µM) |  |  |  |
